Laboratory results: patent US11573241B2, “Total cellular iron as a marker of cancer stem cells and uses thereof” (Institut National de la Sante et de la Recherche Medicale …, priority 2016, dated 2023)
Where a SMILES comes first, the peptide text is derived from it. The star is where a group is joined. Cbz = O=C(OCc1ccccc1)*; CH2F = FC*

Tests used:
[1] = tested on: HMLER CD24^low cells; assay: Immunoblotting of iron homeostasis regulatory proteins; type: cell-based, human; details: 24 h
[2] = tested on: cells from treated PDX 1 and 2; assay: Limiting dilution assay, tumor-seeding capacity (ELDA); type: in vivo, NOD/SCID mice; details: re-implantation into secondary mice
Description: Limiting dilution assay. Cells from 4-week treated mice were re-implanted into one to four secondary NOD/SCID mice with injection of 10, 50, 500 or 5000 cells for each treated tumor to functionally evaluate the proportion of residual CSCs in each treatment group (Unt., Doc, Sal, AM5) for the PDX 1 and 2. Each mouse that developed a tumor reaching a size of 10 mm was considered as a tumor-bearing mouse.
Estimation of number of CSCs in vivo. The number of mammary gland outgrowths obtained in a fat pad after cell re-implantation is currently used to evaluate the number of stem cells able to repopulate this fat pad. It is based on self-renewal and differentiation abilities, two hallmarks of stem cells. In the same manner, estimation of the number of CSCs can be obtained from tumor outgrowth data collected after limited dilution re-implantation of each group of treatments, based on tumor-initiating capacities of CSCs. For calculation, an online tool is available using Extreme Limiting Dilution Analysis (ELDA) (http://bioinf.wehi.edu.au/software/elda/) for limiting dilution analysis based on the Poisson single-hit model according to the number of outgrowths observed and the number of pat pad re-implanted for each cell dilution.

[3] = tested on: patient-derived xenografts (PDX 1 and 2); type: in vivo, NOD/SCID mice; details: intra-peritoneal, 4 weeks
Description: Patient derived xenografts (PDXs). PDXs were established as previously described in Charafe-Jauffret et al., Cancer Res. 73, 7290-7300 (2013) from tissue samples collected prospectively at the Institut Paoli-Calmettes (IPC). Samples of human origin and associated data were obtained from the IPC/CRCM Tumor Bank that operates under authorization #AC-2007-33 granted by the French Ministry of Higher Education and Research. Before scientific use of samples and data, patients were appropriately informed and asked to consent in writing, in compliance with French and European regulations. The project was approved by the IPC Institutional Review Board. Cells from 2 different patient-derived xenografts (PDX 1 and 2) were transplanted orthotopically into fat pads of 4-week-old female non-obese diabetic/severe combined immunodeficient (NOD/SCID) mice (NOD.CB17-Prkdcscid/J, Charles River France) after mechanical treatment and enzymatic digestion using collagenase/hyaluronidase (StemCell Technologies) to generate single-cell suspension suitable for implantation in vivo. PDXs were primarily established as previously described in Caraft-Jauffret et al., and evaluated for ALDEFLUOR-positive CSCs. We injected single cancer cells into fat pads of NOD/SCID mice and monitored tumor growth. When tumor size reached approximately 150 mm^3, Sal and AM5 treatments were performed as indicated above for FIGS. 14 and 15. Tumor growth was compared with that of docetaxel and placebo-treated controls. After 4 weeks of treatment, the animals were sacrificed and the proportion of ALDEFLUOR-positive CSCs was measured in each residual tumor. All animal studies were approved by the French Ministry of Higher Education and Research (authorization number D130554) and ethical committee (number 14), of Aix-Marseille Université. No randomization was used and experimenters were blinded to drug treatments and tissue analyses.
Aldefluor assay. The analysis was processed on single-cell suspension from the PDXs obtained as described above. The ALDEFLUOR Kit (Stemcell™ Technologies) was used to isolate the population with high aldehyde dehydrogenase enzymatic activity using an LSR2 cytometer (Becton Dickinson Biosciences), as previously described in Charafe-Jauffret et al. To eliminate cells of mouse origin from the PDXs, we used staining with an anti-H2Kd antibody (BD Biosciences, 1:200, 20 min on ice) followed by staining with a secondary antibody labeled with phycoerythrin (PE; Jackson Laboratories, 1:250, 20 min on ice).

[4] = tested on: HMLER CD24^low cells; assay: Annexin V/PI assay; type: cell-based, human; details: 48 h
Description: (§1) Annexin V/PI assay. Cells were treated as indicated. After treatment, cell death was quantified using Annexin V-FITC/Propidium Iodide (PI) assay according to the manufacturer's protocol (FITC Annexin V Apoptosis Detection Kit II, 556570, BD Pharmingen™) and analyzed by a LSRFortessa™ flow cytometer (BD Bioscience, San Jose, Calif.). The data were processed using Cell Quest software (BD Biosciences).

[5] = tested on: iCSCL-10A2 cells; assay: Annexin V/PI assay; type: cell-based; details: Sal or AM5 0.5 μM, 72 h
Description: as §1

[6] = tested on: HMLER cells; assay: Flow cytometry of CD44 and CD24 expression after TGF beta; type: cell-based, human
Description: FIG. 11. […] Briefly, HMLER cells were treated as indicated with TGF beta in the presence or absence of transferrin. CD44 and CD24 expression were assessed by flow cytometry. CD44^+ indicates the percent of CD44^high/CD24^Low/− population gated.

[7] = tested on: MCF-7 cells; assay: Immunoblotting of EMT markers and ferritin after OSM; type: cell-based, human; details: OSM 100 ng/ml
Description: FIG. 7. Knock down of ferritin expression interferes with the OSM-mediated induction of EMT in MCF-7 cells. left, Immunoblotting showing levels of EMT markers in MCF-7 cells treated or not with 100 ng/ml of OSM for 72 h. right Immunoblotting showing levels of ferritin and fibronectin proteins in MCF-7 cells transfected with siRNA control (scramble) or siRNA targeting specifically ferritin mRNA (FTH1) during 48 h and then the cells were incubated with OSM (100 ng/ml) for 48 h. Beta-tubulin is used as loading control. MCF-7 were transfected.
Immunoblotting. Cells were treated as indicated, then washed twice with PBS and lysed with 2× Laemmli buffer. Cell extracts were heated at 95° C. for 5 min, sheared through a 26-gauge needle and quantified with a Nanodrop 2000 (Thermo Scientific). Protein lysates (˜100 μg) were resolved by SDS-PAGE electrophoresis and transferred onto PVDF membranes (Amersham). Membranes were blocked with 5% BSA, 0.1% Tween-20/TBS for 1 h. The blots were then probed with the relevant primary antibodies in 5% BSA, 0.1% Tween-20/TBS at 4° C. overnight with gentle agitation. Membranes were washed with 0.1% Tween-20/TBS for 30 min and were incubated with secondary antibodies for 1 h at RT. Antigens were detected by ECL (Amersham). Imaging was performed using a ChemiDoc™ XRS+ System (Biorad).

[8] = tested on: MCF-7 cells; assay: Flow cytometry of CD44 and CD24 expression after OSM; type: cell-based, human; details: OSM 100 ng/ml, 48 h
Description: FIG. 8. Knock down of ferritin expression interferes with the OSM-mediated induction of CD44^highCD24^low/− in MCF-7 cells. MCF-7 were transfected with siRNA control or siRNA specifically targeting ferritin mRNA (FTH1) during 48 h and then the cells were incubated with OSM (100 ng/ml) for 48 h. a. Analysis of CD44 and CD24 expression by flow cytometry. Left panel, CSC indicates the percent of CD44^high/CD24^Low or negative (Low/−) population gated. Right panels, histogram representations of CD44 or CD24 expression (dark grey), or by the isotype control (light grey). b. Graphs representing the percent mean of CD44^high/CD24^Low/− population gated. c. Graphs representing the mean fluorescence intensity (IF) of CD24 and CD44, respectively. d. Quantification of the ALDH+ population in MCF-7 cells treated as indicated above, and measured by flow cytometry. Bars and error bars correspond to mean values and s.d. of two biological replicates, respectively. **P<0.01, ns, not significant, Student's t-test.
Small interfering RNA transfection. Suitable small interfering RNAs (siRNA) were designed with the Qiagen RNA interference designer tool for specific down-regulation of FTH1. The sequence used for FTH1 was 5′-[…]-3′ (S100300251) targeting the sequence following 5′-[…]-3′ and a negative control siRNA for FTH1 (5′-[…]-3′, (S103089212). Subconfluent cells were transfected with siRNA in Opti-MEM using the Oligofectamine™ reagent (Invitrogen) for 48 h. Then, cells were treated with OSM (100 ng/mL for 48 h) prior to protein or RNA extraction and flow cytometry analysis for markers as indicated.

## CCCNC(=O)[C@H]1O[C@@H]1C(=O)N[C@H](C(=O)N1CCC[C@H]1C(=O)O)[C@@H](C)CC [CA-074]
[1]
  ferritin degradation under AM5, cathepsin B inhibition: degradation was prevented

## CC(=O)O[C@@]12CO[C@@H]1C[C@H](O)[C@@]1(C)C(=O)[C@H](O)C3=C(C)[C@@H](OC(=O)[C@H](O)[C@@H](NC(=O)OC(C)(C)C)c4ccccc4)C[C@@](O)([C@@H](OC(=O)c4ccccc4)[C@H]21)C3(C)C [Doc, docetaxel, reference compound]
[2]
  tumor-seeding capacity of tumor cells treated in vivo: lower response than treatment with either AM5 or AM5+Doc
[3]
  tumor growth: less effective

## CC(=O)N[C@@H](CS)C(=O)O [NAC, N-acetyl-L-cysteine]
[4]
  effect of co-treatment on cell death induced by Sal and AM5: partly prevented Sal and AM5 from killing these cells

## COC(=O)C[C@H](NC(=O)[C@H](C)NC(=O)[C@@H](NC(=O)OCc1ccccc1)C(C)C)C(=O)CF [Z-VAD-FMK] (Cbz-Val-Ala-Asp(OMe)-CH2F)
[5]
  effect of inhibitor on cell death induced by Sal or AM5: no effect on the cell death profiles

## CCOC(=O)c1ccc(NC2CCCCC2)c(N)c1 [ferrostatin-1]
[5]
  effect of inhibitor on cell death induced by Sal or AM5: partially prevented

## CN1C(=O)C(Cc2c[nH]c3ccccc23)NC1=S (centres unmarked) [necrostatin-1]
[5]
  effect of inhibitor on cell death induced by Sal or AM5: no effect on the cell death profiles

## TGF-31: cytokine that increases the CD44^high/CD24^Low/− population in HMLER cells
[6]
  percent of CD44^high/CD24^Low/− population: 21%

## Transferrin: iron carrier protein taken up via transferrin receptor
[6]; with TGF beta
  effect on TGF-beta-mediated induction of CD44^highCD24^Low/−: potentiates the TGF-beta-mediated induction

B1: OSM: cytokine oncostatin M, implicated in inducing EMT (protein, UniProt P13725 26-221, looked up)
Oncostatin-M: AAIGSCSKEYRVLLGQLQKQTDLMQDTSRLLDPYIRIQGLDVPKLREHCRERPGAFPSEETLRGLGRRGFLQTLNATLGCVLHRLADLEQRLPKAQDLERSGLNIEDLEKLQMARPNILGLRNNIYCMAQLLDNSDTAEPTKAGRGASQPPTPTPASDAFQRKLEGCRFLHGYHRFMHSVGRVFSKWGESPNRSRR
[7]
  ferritin protein level: increase in ferritin protein level
[7]; 72 h
  EMT marker protein levels: increase of two EMT markers Fibronectin and Snail, and the decrease of E-cad protein levels
[8]
  % of CD24^high population: remains unchanged
  % of CD44^high population: 76%
  % of CD44^highCD24^Low/− CSC population: 4.84%
